Test results reported in US7144891B2, “Benzo[b ]pyrano[3,2- h ]acridin-7-one cinnamate compounds” (Les Laboratoires Servier, priority 2004, dated 2006).

Assays:
[1] = tested on: C38 adenocarcinoma of the colon; assay: In vivo anti-tumour activity with respect to C38 adenocarcinoma of the colon; conditions: i.v. once per week for 3 weeks (days 10, 17, 24), s.c. C38 tumour in B6D2F1 mice
Procedure: Anti-tumour Activity with Respect to C38 Adenocarcinoma of the Colon
Tumour fragments of C38 adenocarcinoma of the colon weighing approximately 30 mg were implanted under the skin of B6D2F1 mice (Iffa Credo, France) on day 0.
After growth of the tumour, the mice were divided into control (18 animals) and treated (6 or 7 animals) groups, which were homogeneous with respect to tumour size. The products were administered by the i.v. route once per week for 3 weeks (on days 10, 17 and 24), at their Maximum Tolerated Dose (MTD), MTD/2 and MTD/4.
The tumours were measured twice a week and the tumour volumes were calculated according to the following formula: volume (mm^3)=length (mm)×breadth (mm^2)/2. The anti-tumour activity is expressed as % T/C: […]
V0 and Vt being the initial volume of the tumour and its volume at measurement time t, respectively.
The optimum dose is the dose giving the lowest T/C value without toxicity (early death or weight loss greater than 20%).

[2] = tested on: L1210 murine leukaemia cells; assay: In vitro cytotoxicity, Microculture Tetrazolium Assay, L1210; type: cell-based; conditions: L1210, 2 days incubation; read-out: IC50 (concentration of cytotoxic agent which inhibits proliferation of the treated cells by 50%)
Procedure: (§1) Two cell lines were used • 1 murine leukaemia: L1210, • 1 human epidermoid carcinoma: KB-3-1
(§2) The cells are cultured in RPMI 1640 complete culture medium containing 10% foetal calf serum, 2 mM glutamine, 50 units/ml of penicillin, 50 μg/ml of streptomycin and 10 mM Hepes, pH=7.4. The cells are distributed on microplates and are exposed to the cytotoxic compounds. The cells are then incubated for 2 days (L1210) or 4 days (KB-3-1). The number of viable cells is then quantified by a colorimetric assay, the Microculture Tetrazolium Assay (Cancer Res. 1987, 47, 939–942).
(§3) The results are expressed in terms of the IC50 (the concentration of cytotoxic agent which inhibits proliferation of the treated cells by 50%).

[3] = tested on: KB-3-1 human epidermoid carcinoma cells; assay: In vitro cytotoxicity, Microculture Tetrazolium Assay, KB-3-1; type: cell-based; conditions: KB-3-1, 4 days incubation; read-out: IC50 (concentration of cytotoxic agent which inhibits proliferation of the treated cells by 50%)
Procedure: as §1, §2, §3

[4] = general statement, limits bioavailability and i.v. use; cited from earlier work

## COc1cc2c(c3c1c(=O)c1cc4ccccc4cc1n3C)[C@@H](OC(C)=O)[C@@H](OC(=O)C=Cc1ccc(Cl)c(Cl)c1)C(C)(C)O2 (single isomer, unassigned) [Example 33, (±)-cis-1-Acetoxy-2-(3,4-dichlorocinnamoyloxy)-6-methoxy-3,3,14-trimethyl-1,2,3,14-tetrahydro-1H-benzo[b]pyrano[3,2-h]acridin-7-one (Enantiomer β)]
[1]; optimum dose of 4 mg/kg
  anti-tumour activity (% T/C): 50%

## COc1cc2c(c3c1c(=O)c1cc4ccccc4cc1n3C)[C@@H](OC(C)=O)[C@@H](OC(=O)C=Cc1ccccc1)C(C)(C)O2 (racemic) [Example 2, (±)-cis-1-Acetoxy-2-cinnamoyloxy-6-methoxy-3,3,14-trimethyl-1,2,3,14-tetrahydro-1H-benzo[b]pyrano[3,2-h]acridin-7-one]
[2]
  IC50: 590 nM
[3]
  IC50: 151 nM

## COc1cc2c(c3c1c(=O)c1ccccc1n3C)C=CC(C)(C)O2 [acronycine, reference compound]
[4]
  solubility: low
[1]; optimum dose of 100 mg/kg
  anti-tumour activity (% T/C): 27%
